In ChEMBL document CHEMBL5316357, “Discovery of Linvencorvir (RG7907), a Hepatitis B Virus Core Protein Allosteric Modulator, for the Treatment of Chronic HBV Infection” (J Med Chem, 2023):

Assays:
[1] = Tmax in female cynomolgus monkey at 30 mg/kg,po by LC-MS/MS analysis; assay type: ADME, organism-based, Macaca fascicularis; conditions: in vivo
[2] = Tmax in male Wistar Han rat at 10 mg/kg,po by LC-MS/MS analysis; assay type: ADME, organism-based; conditions: in vivo
[3] = Half life in female Wistar Han rat at 10 mg/kg,po by LC-MS/MS analysis; assay type: ADME, organism-based; conditions: in vivo
[4] = Tmax in female minipig at 3 mg/kg,po by LC-MS/MS analysis; assay type: ADME, organism-based, Sus scrofa domesticus; conditions: pig, in vivo
[5] = Clearance in rat plasma at 1 mg/kg,iv; assay type: ADME, organism-based
[6] = AUClast in female minipig at 30 mg/kg,po by LC-MS/MS analysis; assay type: ADME, organism-based, Sus scrofa domesticus; set-up: dose 30 mg/kg, route po; conditions: pig, in vivo
[7] = AUClast in male Wistar Han rat at 3 mg/kg,po by LC-MS/MS analysis; assay type: ADME, organism-based; set-up: dose 3 mg/kg, route po; conditions: in vivo
[8] = AUClast in male cynomolgus monkey at 10 mg/kg,po by LC-MS/MS analysis; assay type: ADME, organism-based, Macaca fascicularis; set-up: dose 10 mg/kg, route po; conditions: in vivo
[9] = AUClast in female minipig at 10 mg/kg,po by LC-MS/MS analysis; assay type: ADME, organism-based, Sus scrofa domesticus; set-up: dose 10 mg/kg, route po; conditions: pig, in vivo
Cytochrome P450 2D6 = Cytochrome P450 2D6 (Homo sapiens, UniProt P10635); experiment: Inhibition of CYP2D6 (unknown origin); assay type: ADME
[10] = Cmax in male cynomolgus monkey at 30 mg/kg,po by LC-MS/MS analysis; assay type: ADME, organism-based, Macaca fascicularis; set-up: dose 30 mg/kg, route po; conditions: in vivo
[11] = AUClast in female cynomolgus monkey at 10 mg/kg,po by LC-MS/MS analysis; assay type: ADME, organism-based, Macaca fascicularis; set-up: dose 10 mg/kg, route po; conditions: in vivo
[12] = Cmax in male minipig at 3 mg/kg,po by LC-MS/MS analysis; assay type: ADME, organism-based, Sus scrofa domesticus; set-up: dose 3 mg/kg, route po; conditions: pig, in vivo
[13] = AUClast in male Wistar Han rat at 30 mg/kg,po by LC-MS/MS analysis; assay type: ADME, organism-based; set-up: dose 30 mg/kg, route po; conditions: in vivo
[14] = AUClast in male minipig at 10 mg/kg,po by LC-MS/MS analysis; assay type: ADME, organism-based, Sus scrofa domesticus; set-up: dose 10 mg/kg, route po; conditions: pig, in vivo
[15] = Tmax in male cynomolgus monkey at 3 mg/kg,po by LC-MS/MS analysis; assay type: ADME, organism-based, Macaca fascicularis; conditions: in vivo
[16] = Cmax in female Wistar Han rat at 10 mg/kg,po by LC-MS/MS analysis; assay type: ADME, organism-based; set-up: dose 10 mg/kg, route po; conditions: in vivo
[17] = AUClast in female minipig at 3 mg/kg,po by LC-MS/MS analysis; assay type: ADME, organism-based, Sus scrofa domesticus; set-up: dose 3 mg/kg, route po; conditions: pig, in vivo
[18] = Toxicity in rat assessed as NOAEL administrated upto 28 days; conditions: in vivo, time < 28 day
[19] = Cmax in male cynomolgus monkey at 3 mg/kg,po by LC-MS/MS analysis; assay type: ADME, organism-based, Macaca fascicularis; set-up: dose 3 mg/kg, route po; conditions: in vivo
[20] = Oral bioavailability in female minipig at 30 mg/kg by LC-MS/MS analysis; assay type: ADME, organism-based, Sus scrofa domesticus; conditions: pig, in vivo
[21] = Half life in Wistar Han rat at 2 mg/kg,iv by LC-MS/MS analysis; assay type: ADME, organism-based; conditions: in vivo
[22] = Half life in female cynomolgus monkey at 30 mg/kg,po by LC-MS/MS analysis; assay type: ADME, organism-based, Macaca fascicularis; conditions: in vivo
[23] = Tmax in female Wistar Han rat at 30 mg/kg,po by LC-MS/MS analysis; assay type: ADME, organism-based; conditions: in vivo
[24] = Volume of distribution at steady state in minipig at 2 mg/kg,iv by LC-MS/MS analysis; assay type: ADME, organism-based, Sus scrofa domesticus; conditions: pig, in vivo, read-out: Vdss
[25] = Half life in male minipig at 10 mg/kg,po by LC-MS/MS analysis; assay type: ADME, organism-based, Sus scrofa domesticus; conditions: pig, in vivo
[26] = AUClast in Wistar Han rat at 2 mg/kg,iv by LC-MS/MS analysis; assay type: ADME, organism-based; set-up: dose 2 mg/kg, route iv; conditions: in vivo
[27] = Oral bioavailability in rat plasma at 3 mg/kg; assay type: ADME, organism-based; conditions: plasma
[28] = Tmax in female minipig at 10 mg/kg,po by LC-MS/MS analysis; assay type: ADME, organism-based, Sus scrofa domesticus; conditions: pig, in vivo
[29] = Volume of distribution at steady state in cynomolgus monkey at 2 mg/kg,iv by LC-MS/MS analysis; assay type: ADME, organism-based, Macaca fascicularis; conditions: in vivo, read-out: Vdss
[30] = Clearance in minipig at 2 mg/kg,iv by LC-MS/MS analysis; assay type: ADME, organism-based, Sus scrofa domesticus; conditions: pig, in vivo
[31] = Half life in male cynomolgus monkey at 3 mg/kg,po by LC-MS/MS analysis; assay type: ADME, organism-based, Macaca fascicularis; conditions: in vivo
[32] = Cmax in female minipig at 3 mg/kg,po by LC-MS/MS analysis; assay type: ADME, organism-based, Sus scrofa domesticus; set-up: dose 3 mg/kg, route po; conditions: pig, in vivo
[33] = Half life in female cynomolgus monkey at 3 mg/kg,po by LC-MS/MS analysis; assay type: ADME, organism-based, Macaca fascicularis; conditions: in vivo
[34] = AUClast in female cynomolgus monkey at 3 mg/kg,po by LC-MS/MS analysis; assay type: ADME, organism-based, Macaca fascicularis; set-up: dose 3 mg/kg, route po; conditions: in vivo
[35] = Cmax in female minipig at 10 mg/kg,po by LC-MS/MS analysis; assay type: ADME, organism-based, Sus scrofa domesticus; set-up: dose 10 mg/kg, route po; conditions: pig, in vivo
[36] = Half life in female minipig at 3 mg/kg,po by LC-MS/MS analysis; assay type: ADME, organism-based, Sus scrofa domesticus; conditions: pig, in vivo
[37] = Cmax in female cynomolgus monkey at 30 mg/kg,po by LC-MS/MS analysis; assay type: ADME, organism-based, Macaca fascicularis; set-up: dose 30 mg/kg, route po; conditions: in vivo
[38] = Clearance in mouse plasma at 1 mg/kg,iv; assay type: ADME, organism-based
[39] = Tmax in female cynomolgus monkey at 10 mg/kg,po by LC-MS/MS analysis; assay type: ADME, organism-based, Macaca fascicularis; conditions: in vivo
Cytochrome P450 2C19 = Cytochrome P450 2C19 (Homo sapiens, UniProt P33261); experiment: Inhibition of CYP2C19 (unknown origin); assay type: ADME
[40] = AUClast in cynomolgus monkey at 2 mg/kg,iv by LC-MS/MS analysis; assay type: ADME, organism-based, Macaca fascicularis; set-up: dose 2 mg/kg, route iv; conditions: in vivo
[41] = Tmax in female Wistar Han rat at 10 mg/kg,po by LC-MS/MS analysis; assay type: ADME, organism-based; conditions: in vivo
[42] = Tmax in female Wistar Han rat at 3 mg/kg,po by LC-MS/MS analysis; assay type: ADME, organism-based; conditions: in vivo
[43] = Tmax in female minipig at 30 mg/kg,po by LC-MS/MS analysis; assay type: ADME, organism-based, Sus scrofa domesticus; conditions: pig, in vivo
[44] = Clearance in cynomolgus monkey at 2 mg/kg,iv by LC-MS/MS analysis; assay type: ADME, organism-based, Macaca fascicularis; conditions: in vivo
[45] = Cmax in female cynomolgus monkey at 10 mg/kg,po by LC-MS/MS analysis; assay type: ADME, organism-based, Macaca fascicularis; set-up: dose 10 mg/kg, route po; conditions: in vivo
Cytochrome P450 2C9 = Cytochrome P450 2C9 (Homo sapiens, UniProt P11712); experiment: Inhibition of CYP2C9 (unknown origin); assay type: ADME
[46] = Half life in male Wistar Han rat at 30 mg/kg,po by LC-MS/MS analysis; assay type: ADME, organism-based; conditions: in vivo
[47] = Half life in female Wistar Han rat at 30 mg/kg,po by LC-MS/MS analysis; assay type: ADME, organism-based; conditions: in vivo
[48] = AUClast in minipig at 2 mg/kg,iv by LC-MS/MS analysis; assay type: ADME, organism-based, Sus scrofa domesticus; set-up: dose 2 mg/kg, route iv; conditions: pig, in vivo
[49] = Oral bioavailability in female cynomolgus monkey at 3 mg/kg by LC-MS/MS analysis; assay type: ADME, organism-based, Macaca fascicularis; conditions: in vivo
[50] = Clearance in Wistar Han rat at 2 mg/kg,iv by LC-MS/MS analysis; assay type: ADME, organism-based; conditions: in vivo
[51] = Cmax in female cynomolgus monkey at 3 mg/kg,po by LC-MS/MS analysis; assay type: ADME, organism-based, Macaca fascicularis; set-up: dose 3 mg/kg, route po; conditions: in vivo
[52] = Oral bioavailability in female cynomolgus monkey at 30 mg/kg by LC-MS/MS analysis; assay type: ADME, organism-based, Macaca fascicularis; conditions: in vivo
[53] = Tmax in male minipig at 10 mg/kg,po by LC-MS/MS analysis; assay type: ADME, organism-based, Sus scrofa domesticus; conditions: pig, in vivo
[54] = Oral bioavailability in male Wistar Han rat at 3 mg/kg by LC-MS/MS analysis; assay type: ADME, organism-based; conditions: in vivo
[55] = Oral bioavailability in female Wistar Han rat at 10 mg/kg by LC-MS/MS analysis; assay type: ADME, organism-based; conditions: in vivo

Sequence of Cytochrome P450 2C9 (P11712 whole entry): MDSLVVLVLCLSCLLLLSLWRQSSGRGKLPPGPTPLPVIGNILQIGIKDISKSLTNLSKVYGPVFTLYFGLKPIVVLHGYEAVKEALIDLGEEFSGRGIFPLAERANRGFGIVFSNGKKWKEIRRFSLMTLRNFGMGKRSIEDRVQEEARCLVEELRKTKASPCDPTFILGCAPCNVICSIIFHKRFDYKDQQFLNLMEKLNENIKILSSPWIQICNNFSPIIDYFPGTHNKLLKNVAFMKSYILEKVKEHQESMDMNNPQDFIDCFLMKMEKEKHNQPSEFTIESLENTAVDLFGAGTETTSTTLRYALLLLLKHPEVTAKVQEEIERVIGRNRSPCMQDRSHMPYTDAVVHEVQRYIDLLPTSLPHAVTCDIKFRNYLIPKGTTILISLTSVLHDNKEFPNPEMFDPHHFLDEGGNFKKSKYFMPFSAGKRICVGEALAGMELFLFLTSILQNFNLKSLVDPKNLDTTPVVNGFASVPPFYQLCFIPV
Sequence of Cytochrome P450 2C19 (P33261 whole entry): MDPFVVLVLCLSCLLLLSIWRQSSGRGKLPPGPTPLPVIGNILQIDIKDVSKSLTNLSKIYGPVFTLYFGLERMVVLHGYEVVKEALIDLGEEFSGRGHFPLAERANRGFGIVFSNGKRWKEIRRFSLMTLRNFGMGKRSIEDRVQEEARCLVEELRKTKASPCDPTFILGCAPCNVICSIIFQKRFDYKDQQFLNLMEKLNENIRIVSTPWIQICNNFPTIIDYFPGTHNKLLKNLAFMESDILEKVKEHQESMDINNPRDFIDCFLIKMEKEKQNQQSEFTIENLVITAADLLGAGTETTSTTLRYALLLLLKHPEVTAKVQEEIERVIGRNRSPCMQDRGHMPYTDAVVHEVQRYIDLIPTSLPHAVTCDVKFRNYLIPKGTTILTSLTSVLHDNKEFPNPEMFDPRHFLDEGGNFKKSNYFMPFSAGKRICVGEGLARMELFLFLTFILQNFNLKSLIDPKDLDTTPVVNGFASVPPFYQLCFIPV
Sequence of Cytochrome P450 2D6 (P10635 whole entry): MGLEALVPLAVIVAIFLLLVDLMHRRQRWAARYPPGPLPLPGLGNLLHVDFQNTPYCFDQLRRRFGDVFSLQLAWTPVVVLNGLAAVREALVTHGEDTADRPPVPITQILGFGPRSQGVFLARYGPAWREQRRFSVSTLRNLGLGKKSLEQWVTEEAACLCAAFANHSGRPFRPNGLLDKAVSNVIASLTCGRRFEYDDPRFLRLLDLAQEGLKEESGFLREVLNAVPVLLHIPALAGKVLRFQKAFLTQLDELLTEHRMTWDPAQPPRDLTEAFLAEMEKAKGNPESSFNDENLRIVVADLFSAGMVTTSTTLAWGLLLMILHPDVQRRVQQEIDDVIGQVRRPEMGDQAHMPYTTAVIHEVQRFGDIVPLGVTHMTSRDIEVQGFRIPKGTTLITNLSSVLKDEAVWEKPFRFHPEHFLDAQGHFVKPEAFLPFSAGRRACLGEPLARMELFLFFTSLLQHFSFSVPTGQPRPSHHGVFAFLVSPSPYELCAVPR

Tmax [1]: 2 h
Tmax [2]: 1.5 h
half-life [3]: 1.53 h
Tmax [4]: 1 h
clearance [5]: 30 mL/min/kg
AUC(0-t) [6]: 2550 ng·h/mL
AUC(0-t) [7]: 209 ng·h/mL
AUC(0-t) [8]: 1430 ng·h/mL
AUC(0-t) [9]: 768 ng·h/mL
IC50 (Cytochrome P450 2D6): > 50 µM
Cmax [10]: 2870 ng/mL
AUC(0-t) [11]: 1060 ng·h/mL
Cmax [12]: 67.3 ng/mL
AUC(0-t) [13]: 8500 ng·h/mL
AUC(0-t) [14]: 1240 ng·h/mL
Tmax [15]: 0.25 h
Cmax [16]: 683 ng/mL
AUC(0-t) [17]: 201 ng·h/mL
Cmax [19]: 64 ng/mL
bioavailability [20]: 12.4%
half-life [21]: 1.46 h
half-life [22]: 5.98 h
Tmax [23]: 2 h
Vd [24]: 1.12 L/kg
half-life [25]: 7.28 h
AUC(0-t) [26]: 1120 ng·h/mL
bioavailability [27]: 14%
Tmax [28]: 0.5 h
Vd [29]: 0.67 L/kg
clearance [30]: 24.1 mL/min/kg
half-life [31]: 6.25 h
Cmax [32]: 46 ng/mL
half-life [33]: 5.92 h
AUC(0-t) [34]: 253 ng·h/mL
Cmax [35]: 132 ng/mL
half-life [36]: 9.68 h
Cmax [37]: 841 ng/mL
clearance [38]: 20 mL/min/kg
Tmax [39]: 0.5 h
IC50 (Cytochrome P450 2C19): > 50 µM
AUC(0-t) [40]: 1490 ng·h/mL
Tmax [41]: 1 h
Tmax [42]: 0.5 h
Tmax [43]: 2 h
clearance [44]: 23.6 mL/min/kg
Cmax [45]: 336 ng/mL
IC50 (Cytochrome P450 2C9): > 50 µM
half-life [46]: 2.79 h
half-life [47]: 1.8 h
AUC(0-t) [48]: 1370 ng·h/mL
bioavailability [49]: 14.5%
clearance [50]: 30.5 mL/min/kg
Cmax [51]: 100 ng/mL
bioavailability [52]: 18.6%
Tmax [53]: 1 h
bioavailability [54]: 13.5%
bioavailability [55]: 36.4%
Structure (SMILES): CCOC(=O)C1=C(CN2CCN3C(=O)N(CC(C)(C)C(=O)O)C[C@@H]3C2)NC(c2nccs2)=N[C@H]1c1cccc(F)c1C [LINVENCORVIR]
NOAEL at 672 h [18]: 250 mg/kg
